Assay results from PubChem BioAssay (NCI).
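A five-concentration, 48-hour dose response in 96-well plates underlies each endpoint, interpolated linearly between surrounding concentrations. At the TGI there is no net growth.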

Legend:
Assay in all cases: growth of human tumour cells (NCI), 48 h
UO-31 renal = system: UO-31 renal
SN12C renal = system: SN12C renal
HL-60(TB) leukemia = system: HL-60(TB) leukemia
UACC-257 melanoma = system: UACC-257 melanoma
SF-295 CNS = system: SF-295 CNS
SNB-75 CNS = system: SNB-75 CNS
A498 renal = system: A498 renal
MOLT-4 leukemia = system: MOLT-4 leukemia
MALME-3M melanoma = system: MALME-3M melanoma
DMS 114 small cell lung = system: DMS 114 small cell lung
HCT-15 colon = system: HCT-15 colon
LXFL 529 NSCLC = system: LXFL 529 NSCLC
TK-10 renal = system: TK-10 renal
NCI-H460 lung = system: NCI-H460 lung
RXF-631 renal = system: RXF-631 renal
SNB-78 CNS = system: SNB-78 CNS
SK-MEL-5 melanoma = system: SK-MEL-5 melanoma
HCC-2998 colon = system: HCC-2998 colon
COLO 205 colon = system: COLO 205 colon
A549 NSCLC = system: A549 NSCLC
KM12 colon = system: KM12 colon
HOP-92 NSCLC = system: HOP-92 NSCLC
M14 melanoma = system: M14 melanoma
LOX IMVI melanoma = system: LOX IMVI melanoma
IGROV1 ovarian = system: IGROV1 ovarian
UACC-62 melanoma = system: UACC-62 melanoma
786-0 renal = system: 786-0 renal
CCRF-CEM leukemia = system: CCRF-CEM leukemia
OVCAR-8 ovarian = system: OVCAR-8 ovarian
SR leukemia = system: SR leukemia
U251 CNS = system: U251 CNS
DLD-1 colon = system: DLD-1 colon
CAKI-1 renal = system: CAKI-1 renal
SW-620 colon = system: SW-620 colon
KM20L2 colon = system: KM20L2 colon
HOP-62 NSCLC = system: HOP-62 NSCLC
SNB-19 CNS = system: SNB-19 CNS
SK-OV-3 ovarian = system: SK-OV-3 ovarian
ACHN renal = system: ACHN renal
SK-MEL-28 melanoma = system: SK-MEL-28 melanoma
SF-268 CNS = system: SF-268 CNS
XF 498 CNS = system: XF 498 CNS
NCI-H23 lung = system: NCI-H23 lung
K-562 leukemia = system: K-562 leukemia
HCT-116 colon = system: HCT-116 colon
HT29 colon = system: HT29 colon
SK-MEL-2 melanoma = system: SK-MEL-2 melanoma
EKVX NSCLC = system: EKVX NSCLC
OVCAR-4 ovarian = system: OVCAR-4 ovarian
RXF 393 renal = system: RXF 393 renal
NCI-H522 lung = system: NCI-H522 lung
NCI-H226 lung = system: NCI-H226 lung
OVCAR-3 ovarian = system: OVCAR-3 ovarian
SF-539 CNS = system: SF-539 CNS
M19-MEL melanoma = system: M19-MEL melanoma
DMS 273 small cell lung = system: DMS 273 small cell lung
HOP-18 NSCLC = system: HOP-18 NSCLC
RPMI-8226 leukemia = system: RPMI-8226 leukemia
OVCAR-5 ovarian = system: OVCAR-5 ovarian

CCOC(=O)NC(=O)c1cn(CCN2CCN(C(=O)CCCCCCCCCCNc3ncnc4c3ncn4C3OC(CO)C(O)C3O)CC2)c(=O)[nH]c1=O (centres undefined)
TGI (UO-31 renal): > 100 µM | TGI (SN12C renal): > 100 µM | TGI (HL-60(TB) leukemia): > 100 µM | TGI (UACC-257 melanoma): > 100 µM | TGI (SF-295 CNS): > 100 µM | TGI (SNB-75 CNS): > 100 µM | TGI (A498 renal): > 100 µM | TGI (MOLT-4 leukemia): > 100 µM | TGI (MALME-3M melanoma): > 100 µM | TGI (DMS 114 small cell lung): > 100 µM | TGI (HCT-15 colon): > 100 µM | TGI (LXFL 529 NSCLC): > 100 µM | TGI (TK-10 renal): > 100 µM | TGI (NCI-H460 lung): > 100 µM | TGI (RXF-631 renal): > 100 µM | TGI (SNB-78 CNS): > 100 µM | TGI (SK-MEL-5 melanoma): > 100 µM | TGI (HCC-2998 colon): > 100 µM | TGI (COLO 205 colon): > 100 µM | TGI (A549 NSCLC): > 100 µM | TGI (KM12 colon): > 100 µM | TGI (HOP-92 NSCLC): > 100 µM | TGI (M14 melanoma): > 100 µM | TGI (LOX IMVI melanoma): > 100 µM | TGI (IGROV1 ovarian): > 100 µM | TGI (UACC-62 melanoma): > 100 µM | TGI (786-0 renal): > 100 µM | TGI (CCRF-CEM leukemia): > 100 µM | TGI (OVCAR-8 ovarian): > 100 µM | TGI (SR leukemia): > 100 µM | TGI (U251 CNS): > 100 µM | TGI (DLD-1 colon): > 100 µM | TGI (CAKI-1 renal): > 100 µM | TGI (SW-620 colon): > 100 µM | TGI (KM20L2 colon): > 100 µM | TGI (HOP-62 NSCLC): > 100 µM | TGI (SNB-19 CNS): > 100 µM | TGI (SK-OV-3 ovarian): > 100 µM | TGI (ACHN renal): > 100 µM | TGI (SK-MEL-28 melanoma): > 100 µM | TGI (SF-268 CNS): > 100 µM | TGI (XF 498 CNS): > 100 µM | TGI (NCI-H23 lung): > 100 µM | TGI (K-562 leukemia): > 100 µM | TGI (HCT-116 colon): > 100 µM | TGI (HT29 colon): > 100 µM | TGI (SK-MEL-2 melanoma): > 100 µM

Cc1ccccc1NC(=O)C(=O)C1CN(c2ccccc2)N=C1N (centres undefined)
TGI (UO-31 renal): > 100 µM | TGI (SN12C renal): > 100 µM | TGI (HL-60(TB) leukemia): > 100 µM | TGI (UACC-257 melanoma): > 100 µM | TGI (SNB-75 CNS): > 100 µM | TGI (A498 renal): > 100 µM | TGI (MOLT-4 leukemia): > 100 µM | TGI (MALME-3M melanoma): > 100 µM | TGI (EKVX NSCLC): > 100 µM | TGI (LXFL 529 NSCLC): > 100 µM | TGI (NCI-H460 lung): > 100 µM | TGI (RXF-631 renal): > 100 µM | TGI (SNB-78 CNS): > 100 µM | TGI (HCC-2998 colon): > 100 µM | TGI (OVCAR-4 ovarian): > 100 µM | TGI (A549 NSCLC): > 100 µM | TGI (HOP-92 NSCLC): > 100 µM | TGI (M14 melanoma): > 100 µM | TGI (IGROV1 ovarian): > 100 µM | TGI (786-0 renal): > 100 µM | TGI (CCRF-CEM leukemia): > 100 µM | TGI (OVCAR-8 ovarian): > 100 µM | TGI (SR leukemia): > 100 µM | TGI (U251 CNS): > 100 µM | TGI (DLD-1 colon): > 100 µM | TGI (RXF 393 renal): > 100 µM | TGI (CAKI-1 renal): > 100 µM | TGI (KM20L2 colon): > 100 µM | TGI (NCI-H522 lung): > 100 µM | TGI (HOP-62 NSCLC): > 100 µM | TGI (SNB-19 CNS): > 100 µM | TGI (SK-OV-3 ovarian): > 100 µM | TGI (SK-MEL-28 melanoma): > 100 µM | TGI (NCI-H226 lung): > 100 µM | TGI (OVCAR-3 ovarian): > 100 µM | TGI (SF-268 CNS): > 100 µM | TGI (XF 498 CNS): > 100 µM | TGI (NCI-H23 lung): > 100 µM | TGI (SF-539 CNS): > 100 µM | TGI (K-562 leukemia): > 100 µM | TGI (M19-MEL melanoma): > 100 µM | TGI (HCT-116 colon): > 100 µM | TGI (HT29 colon): > 100 µM

O=c1[nH]c2cc([N+](=O)[O-])ccc2nc1/C(=N/Nc1ccccc1)C(O)c1ccc(Cl)cc1Cl (centres undefined)
TGI (UO-31 renal): > 100 µM | TGI (SN12C renal): > 100 µM | TGI (HL-60(TB) leukemia): > 100 µM | TGI (UACC-257 melanoma): > 100 µM | TGI (SF-295 CNS): > 100 µM | TGI (SNB-75 CNS): > 100 µM | TGI (A498 renal): > 100 µM | TGI (MOLT-4 leukemia): > 100 µM | TGI (MALME-3M melanoma): > 100 µM | TGI (DMS 114 small cell lung): 44.7 µM | TGI (EKVX NSCLC): > 100 µM | TGI (HCT-15 colon): > 100 µM | TGI (TK-10 renal): > 100 µM | TGI (NCI-H460 lung): > 100 µM | TGI (RXF-631 renal): > 100 µM | TGI (DMS 273 small cell lung): > 100 µM | TGI (SNB-78 CNS): > 100 µM | TGI (SK-MEL-5 melanoma): > 100 µM | TGI (HCC-2998 colon): > 100 µM | TGI (HOP-18 NSCLC): > 100 µM | TGI (OVCAR-4 ovarian): > 100 µM | TGI (COLO 205 colon): > 100 µM | TGI (A549 NSCLC): > 100 µM | TGI (KM12 colon): > 100 µM | TGI (HOP-92 NSCLC): > 100 µM | TGI (M14 melanoma): > 100 µM | TGI (LOX IMVI melanoma): > 100 µM | TGI (IGROV1 ovarian): > 100 µM | TGI (UACC-62 melanoma): > 100 µM | TGI (786-0 renal): > 100 µM | TGI (CCRF-CEM leukemia): > 100 µM | TGI (OVCAR-8 ovarian): > 100 µM | TGI (SR leukemia): 82.4 µM | TGI (RPMI-8226 leukemia): > 100 µM | TGI (U251 CNS): > 100 µM | TGI (DLD-1 colon): > 100 µM | TGI (RXF 393 renal): > 100 µM | TGI (KM20L2 colon): > 100 µM | TGI (NCI-H522 lung): > 100 µM | TGI (HOP-62 NSCLC): > 100 µM | TGI (SK-OV-3 ovarian): > 100 µM | TGI (ACHN renal): > 100 µM | TGI (NCI-H226 lung): > 100 µM | TGI (OVCAR-3 ovarian): > 100 µM | TGI (SF-268 CNS): > 100 µM | TGI (XF 498 CNS): > 100 µM | TGI (NCI-H23 lung): > 100 µM | TGI (SF-539 CNS): > 100 µM | TGI (K-562 leukemia): > 100 µM | TGI (M19-MEL melanoma): > 100 µM | TGI (HCT-116 colon): > 100 µM | TGI (HT29 colon): > 100 µM | TGI (SK-MEL-2 melanoma): > 100 µM | TGI (OVCAR-5 ovarian): > 100 µM
